From patent US7842690B2, “Cyclic hydroxylamine as psychoactive compounds” (BTG International Limited, priority 2003, dated 2010) come the findings set out here.

Common to all, as to type: in vivo
Assay [1] concerns BKW male albino mice. Description: Black and white box test (Example 10). As to conditions: 0.1 mg/kg IP 40 min before test, 5-min period.
Assay [2] has as its system rats. The experiment in a line: Elevated plus maze (X-maze) in rats. As to conditions: 0.125 mg/kg IP 40 min before test, 5-min period. From the text:
The X-maze is constructed from Perspex® and comprises four arms (2 open, 2 closed), each 50 cm long by 9.5 wide and 40 high (closed, arms only) connected by a centre square (9.5×9.5). The open arm has a small lip (3 mm) to assist in the retention of the rat on the arm. The apparatus was housed in a room under subdued lighting conditions.
This model is based on the observation of spontaneous activity of rodents placed in an aversive environment produced by height and often spaces. […] Anxiolytic drugs increase the exploratory activity and the number of entries into the open arms. Rats were allowed at least 1 hour to acclimatise to the environment before testing commenced. Drug treatments were given IP in a pseudo-random, blind design, 40 minutes before behavioural testing, as appropriate. Rats were placed onto the centre square of the X-maze facing a specified open arm, and its behaviour was recorded by remote video over a 5 minute experimental period. The behavioural parameters were subsequently assessed by technicians reviewing the videotape and included: entries into each arm type, time spent on each arm type, rearing, stretch attend postures and head dips.

Assay [3] deals with rats. Description: Escape deficit test (learned helplessness), antidepressant activity. Particulars: rats treated IP for 15 days, unavoidable stress 16 h and escape test 24 h after last dosing; out of 30 trials; dose not given. On the procedure:
The “Escape deficit” test that derives from the classic paradigm of “learned helplessness” was used, as described by Meloni et al. in Pharmacol. Biochem. Behav. 46, 423-6 (1993) and Gambarana et al. in Behav. Pharmacol. 6, 66-73 (1995) and Neuropsychopharmacol. 21, 247-57 (1999). Exposure to an unavoidable stress induces […], which, after 24 hours, makes the rats unable to escape from a nociceptive stimulus. Rats exposed to unavoidable stress make 0-5 escapes out of 30 trials, while naïve rats realise 26-30 escapes. Classical anti-depressives prevent the occurrence of the escape deficit after chronic treatment (15 days).
Rats were treated intra-peritoneally (IP) for 15 days, and then submitted to the unavoidable stress (16 hours after the last dosing) prior to being subjected to the escape test (24 hours after the last dosing).

The subject of assay [4] is Male rats of the Wistar strain. Description: Despair test (forced swim). Particulars: 5-min test, mean ± S.E.M.
In assay [5] the test system is Male rats of the Wistar strain. The experiment in a line: Reserpine-induced changes in open field behaviour. Particulars: reserpine 0.1 mg/kg SC daily for 14 days, 5-min test, mean ± S.E.M. As for the experimental part:
Rats treated with the compound of Example 1 were compared to either rats treated with the classical antidepressant, clomipramine or controls in the despair test (forced swim). The same groups were also tested for the reserpine-induced changes in open field behaviour.
Male rats of the Wistar strain (purchased from Charles River, Italy) weighing 220-240 g were used throughout all experiments. For at least 1 week prior to the experiment, the rats were housed four to a cage at a constant temperature of 21° C., and under a 12-h light/dark cycle (lights on between 08:00 and 20:00), with food and water available ad libitum.
An acute IP injection of clomipramine hydrochloride (50 mg/kg) or of the compound of Example 1 (0.2 and 0.5 mg/kg) or physiological saline was made in animals subjected to the reserpine-induced changes in the open field test (the injection was made together with the last reserpine administration, e.g. 1 h prior to the open field test).
All animals were gently manipulated by experienced facilities' keepers avoiding any environmental or physical stress. Rats subjected to drugs or physiological saline administration received an injection of a 1-mL standard volume of solution with a 23-gauge stainless steel needle of 31 mm length (for […]) or 21 mm length (for SC injections). The animals were randomly assigned to any treatment group and were used only once in the behavioural experiments.
Reserpine-induced changes in open field behaviour was studied according to the method described in Naunyn-Schmiedeberg's Arch. Pharmacol. 293: 109-114 (Vetulani et al., 1976). Reserpine (Sigma, USA) was dissolved in physiological saline and injected daily for 14 days at the dose of 0.1 mg/kg subcutaneously (SC). A period of 1 hour after the last injection of reserpine, animals were subjected to the open field test. This consisted of the measure of ambulation and rearing of the rat in a circular area divided into 17 equal sections and lighted by a centrally suspended lamp. The areas explored by the rat at least with anterior paws was recorded in 5 min test. The episodes of rearing towards the centre or the walls were also recorded in 5 min test.
All data were analysed using univariate random design analysis of variance (one-way ANOVA) and the post hoc Dunnett's test for multiple comparisons. A P-value of 0.05 or less was considered as indicative of a significant difference.

Where [6] appears, read: acute 0.2 mg/kg IP 1 h prior to open field test.
[7] abbreviates: acute 0.5 mg/kg IP 1 h prior to open field test.
Where [8] appears, read: acute 0.5 mg/kg IP 1 h prior to open field test, listed as Example 1.

Consider `O=C1CCCC=C1C1COCCN1O` (stereo not shown) [Ex. 1 (Abio 09/01), 2-(4-hydroxy-3-morpholinyl)-2-cyclohexenone], for which, in assay [1], the “Atot = Total exploratory activity” value is recorded as “+10.4”, the “CB/TB = crossings in the white compartment/time in white” value is −0.05, the “CN/TN = crossings in the black compartment/time in black” value was 0.08 and the “Ctot = total number of crossings” value was “+7.5”. In addition, in assay [1], the “FI = Initial potency” value was “+11.5”, the “PT = Total passages through the partition” value is on record as “+0.9”, the “RB/TB = rearings in the white compartment/time in white” value is “+0.02” and the “RN/TN = rearings in the black compartment/time in black” value is listed as “+0.06”. For the same molecule, in assay [1], the “Rtot = Total number of rearings” value was “+5”. Further, in assay [1] (signed value), the “TB = time in white section” value was “+53.4”. In addition, in assay [2], the “% time spent in open arms” value was determined as 39 ± 10% and the “No. of entries in open arms” value is 5.2 ± 1.4. The molecule further yielded a No. of escapes in assay [3] of 23.3 ± 1.3. In addition, in assay [4] (0.2 mg/kg IP), the “Duration of Immobility” value is recorded as 167.00 ± 11.11. The “Duration of Immobility” value in assay [4] (0.5 mg/kg IP, 0.5 mg/kg) came out at 109.83 ± 9.12. Besides, the “Duration of Immobility” value in assay [4] (0.5 mg/kg IP, listed as Example 1, 0.5 mg/kg) is given as “significant decrease of immobility time”. For the same molecule, in assay [5] (setting [6]), the “No. of Floor Units (ambulation)” value worked out at 128.1 ± 11.9 and the “Rearing Episodes” value came to 5.9 ± 0.3. Further, in assay [5] (setting [7]), the “No. of Floor Units (ambulation)” value was 92.2 ± 11.1 and the “Rearing Episodes” value is 2.2 ± 0.5. For the same molecule, in assay [5] (setting [8]), the “No. of Floor Units (ambulation)” value is given as “decreased ambulation”; the “Rearing Episodes” value is “decreased ambulation (number of floor units entered) and rearing”.
